Source: patent US6121290A, “Use of GABA uptake inhibitors as anti-tussive agents” (SmithKline Beecham Corporation, priority 1998, dated 2000)

What was measured:
[1] = system: citric acid-induced cough; assay: Citric acid-induced cough in guinea pigs (anti-tussive activity in vivo); set-up: species or system Male Hartley Guinea pigs; settings: 0.4M citric acid, 30 min pre-treatment; for Treated (incidences of cough): coughs in 13 minutes; for % Inhibition: cough inhibition vs control
Procedure: Citric acid was nebulized for only one minute to the animals. Coughs were determined by examination of the flow signal and observation of the test animals.
To perform the experiments Male Hartley Guinea pigs weighing between 550, and 750 g were placed into a clear plastic exposure chamber with an internal volume of 6 l. A bias air flow was applied to the chamber at a flow rate of 2 l/min for the duration of the experiment.
An incidence of cough was denoted by a larger than normal inspiration (at least twice normal tidal deflection) followed immediately by a rapid, forceful expiration (more than three times the normal excursion from baseline). A cough was easily distinguished from animal movement, augmented breaths and gasps by close inspection of the data. Because a sneeze and cough have similar flow patterns, they were differentiated by visual observation of the animals.
Test compounds were administered via the IP route, and the pre-treatment time was 30 min. The aerosol was administered to the animals by connecting a small volume ultrasonic nebulizer (AeroSonic model 5000D Devilbis Sumerset, Pa.) to the bias-flow immediately before the exposure chamber inlet. The animals were challenged with 0.4M citric acid aerosol solution. A volume of 2 ml of citric acid solution was placed in the ultrasonic nebulizer. In one minute approximately 0.5 ml of the solution was nebulized to each animal. This has been previously shown to induce the cough reflex. The incidences of cough in 13 minutes (aerosolization time+observation time,) as well as time to onset of the first cough were recorded.

GABA uptake = settings: in words, from cited literature; cited from earlier work
[2] = system: citric acid-induced cough; assay: Citric acid-induced cough in guinea pigs (anti-tussive activity in vivo); set-up: species or system Male Hartley Guinea pigs; settings: 0.4M citric acid; for Treated (incidences of cough): coughs in 13 minutes; for % Inhibition: cough inhibition vs control

O=C(O)[C@@H]1CNCC[C@@H]1O (relative stereo) [Compound 6, cis4-hydroxy-3-piperidinecarboxylic acid]
Treated (incidences of cough) ([1]; 10 mg ip): 16.3 | % Inhibition ([1]; 10 mg ip): 8.21% | Treated (incidences of cough) ([1]; 20 mg ip): 8.6 | % Inhibition ([1]; 20 mg ip): 35.82%

Cc1ccsc1C(=CCCN1CCC[C@@H](C(=O)O)C1)c1sccc1C [(R)-1-[4,4-bis(3-methyl-2-thienyl)-3-butenyl]-3-piperidinecarboxylic acid, reference compound]
GABA uptake inhibitory activity (GABA uptake): having GABA uptake inhibitory activity

O=C(O)CC1CCN(CCC=C(c2ccccc2)c2ccccc2)C1 (centres unmarked) [Compound 1, N-(4,4-diphenyl-3-butenyl)-3-pyrrolidineacetic acid]
Treated (incidences of cough) ([1]; 20 mg ip): 7.2 | % Inhibition ([1]; 20 mg ip): 53.13%

O=C(O)C1CCCNC1 (centres unmarked) [Compound 2, 3-piperidinecarboxylic acid]
Treated (incidences of cough) ([1]; 20 mg ip): 9.75 | % Inhibition ([1]; 20 mg ip): 28.36%

O=C(O)[C@@H]1CCCN(CCC=C(c2ccccc2)c2ccccc2)C1 [Compound 3, (R)-N-(4,4-diphenyl-3-butenyl)-3-piperidinecarboxylic acid]
Treated (incidences of cough) ([1]; 1 mg ip): 6.6 | % Inhibition ([1]; 1 mg ip): 49.23% | Treated (incidences of cough) ([1]; 10 mg ip): 2.8 | % Inhibition ([1]; 10 mg ip): 78.46% | Treated (incidences of cough) ([2]; 10 mg po): 8.2 | % Inhibition ([2]; 10 mg po): 42.25% | Treated (incidences of cough) ([2]; 30 mg po): 8 | % Inhibition ([2]; 30 mg po): 43.66% | GABA uptake inhibitory activity (GABA uptake): having GABA uptake inhibitory activity

O=C(O)C1=CCCNC1 [Compound 4, 1,2,5,6-tetrahydro-3-pyridinecarboxylic acid]
Treated (incidences of cough) ([1]; 6 mg ip): 7.6 | % Inhibition ([1]; 6 mg ip): 48.30% | Treated (incidences of cough) ([1]; 20 mg ip): 4.75 | % Inhibition ([1]; 20 mg ip): 67.69% | GABA uptake inhibitory activity (GABA uptake): having GABA uptake inhibitory activity

O=C(O)C1=CCCN(CCC=C(c2ccccc2)c2ccccc2)C1 [Compound 5, N-(4,4-diphenyl-3-butenyl)-1,2,5,6-tetrahydro-3-pyridinecarboxylic acid]
Treated (incidences of cough) ([1]; 1 mg ip): 15.4 | % Inhibition ([1]; 1 mg ip): 5.79% | Treated (incidences of cough) ([1]; 3 mg ip): 12.4 | % Inhibition ([1]; 3 mg ip): 20.53% | Treated (incidences of cough) ([1]; 30 mg ip): 1 | % Inhibition ([1]; 30 mg ip): 92.48%
